Legend:
[1] = system: cultured retinal neurons of rat fetus; assay: glutamate-induced death of cultured retinal neurons of rat fetus (trypan blue exclusion); type: cell-based; conditions: for Survival rate of cultured retinal neurons (%): 10 min, then 1 h drug-free, untreated 67, glutamate alone 46
Method: (1) Topiramate's Action on the Glutamate-Induced Death of Cultured Retinal Neurons of Rat Fetus: From rat fetuses (aged 17 to 19 days), retinal cells were taken out and isolated, and were cultured on a polyethylene-imine-coated plastic-covered slip in a 10% bovine fetal serum-containing Eagle's basal medium for seven days. From the eighth day, they were cultured in a 10% equine serum-containing Eagle's basal medium. On the sixth day of culture, cytosine arabinoside (10 μM) was added to inhibit the proliferation of non-neuronal cells. Next, the cells were incubated (37° C., 5% CO2.95% air) for 10 minutes in a medium which had been prepared by adding glutamate (1 mM) and topiramate in various concentrations (10 nM˜100 μM) to serum-free Eagle's basal medium. Then, cells were returned to serum-free Eagle's basal medium which contained neither glutamate nor topiramate, and were incubated (37° C., 5% CO2.95% air) for one hour, and, thereafter, toxicity was determined by trypan blue exclusion method. In detail, cells were immobilized with 10% neutral formalin solution, and were washed with physiological saline. Then, cells were dyed by adding trypan blue solution, and, thus, the number of cells was counted by phase-contrast microscope. Cells which had been dyed with trypan blue were regarded as dead, and non-dyed cells as surviving, and, thus, the survival rate of cultured cells was found from the proportion of the number of surviving cells to the number of total cells counted (at least 200). The group to which 1 mM of glutamate had been added and the group to which both 1 mM of glutamate and topiramate in various concentrations had been added are respectively called “Single 1 mM glutamate added group” and “1 mM glutamate+topiramate (various concentrations) added group”. Results concerning these groups were compared with the corresponding measured values of “Untreated group”, i.e., a group which had received no treatments. The values in the table are average values.

[2] = system: ischemia-induced retinal damage; assay: ischemia-induced retinal damage in rat (ischemia-reperfusion, retinal histology); type: in vivo
Source text: (2) Topiramate's Action on Ischemia-Induced Retinal Damage in Rat:
Anesthesia was indued in rat with 3% halothane, and, then, anesthesia was maintained with 1% halothane (halothane was vaporized with 0.5 l oxygen/min. and 1.5 l dinitrogen monoxider/min.). Next, mydriasis was caused in right eye with atropine, and, then, 30 G injection needle which was connected with a vessel of physiological saline for instillation via a tube hung from the ceiling was stuck into anterior chamber, and, thus, a 130 mmHg hydraulic pressure was given, and ischemia was thereby induced After 45 minutes, the injection needle was removed, and retinal blood flow was allowed to make reperfusion. Administration was conducted by intraperitoneal injection into rats with physiological saline (solvent) and topiramate (200 mg/kg body weight) dissolved (partially suspended) in solvent, respectively. The administration was carried out twice respectively, i.e., two hours before and immediately after inschemia. Seven days after the administration, eyeball was taken out, immobilized overnight in 2% paraformaldehyde-2.5% glutaraldehyde, subjected to paraffin embedding, and was sectioned, and, thus, retinal slices (with a thickness of 3 μm) stained with hematoxylin-eosin (HE) were prepared. From eight slices which had been cut with an interval of 60 μm per one eyeball so that optic nerve head might be covered, three slices were optionally selected. With regard to thus selected three slices, there was taken a photograph of retina in the range of 1 to 1.5 mm on the left or right side from optic nerve head, and, thus, the number of cells in ganglion cell layer (GCL) in retina and the thickness of inner plaxiform layer (IPL) were measured. The group to which solvent had been administered and ischemia had been induced and the group to which topiramate dissolved in solvent had been administered and ischemia had been induced are respectively called “Solvent-administered group” and “Topiramate-administered group”. […]

Compound: CC1(C)O[C@@H]2[C@@H](CO[C@@]3(COS(N)(=O)=O)OC(C)(C)O[C@@H]23)O1 [topiramate, 2,3:4,5-bis-O-(1-methylethylidene)-β-D-fructopyranose sulfamate]
- Survival rate of cultured retinal neurons (%) ([1]; 1 mM glutamate + 10 nM topiramate): 50%
- Survival rate of cultured retinal neurons (%) ([1]; 1 mM glutamate + 100 nM topiramate): 58%
- Survival rate of cultured retinal neurons (%) ([1]; 1 mM glutamate + 1 μM topiramate): 60%
- Survival rate of cultured retinal neurons (%) ([1]; 1 mM glutamate + 10 μM topiramate): 64%
- Survival rate of cultured retinal neurons (%) ([1]; 1 mM glutamate + 100 μM topiramate): 65%
- effect on death (apoptosis) of cultured retinal neurons ([1]; 1 mM glutamate, topiramate 10 nM-100 μM, summary of Table 1): remarkably inhibit the death (apoptosis) of cultured retinal neurons in a concentration-dependent manner
- Thickness of IPL (μm) ([2]; 200 mg/kg intraperitoneal twice (2 h before and immediately after 45 min ischemia), 7 days after, normal 49, solvent 21): 30 μm
- Number of cells in GCL (number/mm) ([2]; 200 mg/kg intraperitoneal twice (2 h before and immediately after 45 min ischemia), 7 days after, normal 68, solvent 36): 44 number/mm
- effect on decrease of number of cells in ganglion cell layer and thinning of inner plexiform layer ([2]; 200 mg/kg intraperitoneal, summary of Table 2): excellent in effectively preventing both the decrease of number of cells in ganglion cell layer and the thinning of inner plexiform layer

— patent US7153837B2, “Agent for protection of retinal neurons” (Ortho-McNeil Pharmaceutical Inc., priority 2001, dated 2006)
